# Laboratory results as given in US6586441B2, “Adenosine receptor ligands and their use in the treatment of disease” (Hoffman-La Roche Inc., priority 2000, dated 2003).
# Molecular target: T1, human adenosine A2A receptor (Homo sapiens, UniProt P29274)
# T1 construct: expressed in transfected cells; host or cells: CHO cells, semliki forest virus expression system; membrane preparation
# Test: Human adenosine A2A receptor [3H]-SCH-58261 binding assay
# Conditions: human A2a receptor, membranes of CHO cells, [3H]-SCH-58261; read-out: pKi (affinity to the human A2a receptor) (converted)
# Method: The gene encoding human adenosine A2A receptor was recombinantly introduced and expressed in chinese hamster ovary (CHO) cells using the semliki forest virus expression system. Cells were harvested, washed twice by centrifugation, homogenised and again washed by centrifugation. The final washed membrane pellet was suspended in a Tris (50 mM) buffer containing 120 mM NaCl, 5 mM KCl, 2 mM CaCl2 and 10 mM MgCl2 (pH 7.4) (buffer A). The [^3H]-SCH-58261 (Dionisotti et al., 1997, Br. J. Pharmacol. 121, 353; 1 nM) binding assay was carried out in 96-well plates in the presence of 2.5 μg of membrane protein, 0.5 mg of Ysi-poly-1-lysine SPA beads and 0.1 U adenosine deaminase in a final volume of 200 μl of buffer A. Non-specific binding was defined using xanthine amine congener (XAC; […]). Compounds were tested at 10 concentrations from 10 μM-0.3 nM. All assays were conducted in duplicate and repeated at least two times. Assay plates were incubated for 1 hour at room temperature before centrifugation and then bound ligand determined using a Packard Topcount scintillation counter. IC50 values were calculated using a non-linear curve fitting program and Ki values calculated using the Cheng-Prussoff equation.
# T1 sequence (P29274 whole entry): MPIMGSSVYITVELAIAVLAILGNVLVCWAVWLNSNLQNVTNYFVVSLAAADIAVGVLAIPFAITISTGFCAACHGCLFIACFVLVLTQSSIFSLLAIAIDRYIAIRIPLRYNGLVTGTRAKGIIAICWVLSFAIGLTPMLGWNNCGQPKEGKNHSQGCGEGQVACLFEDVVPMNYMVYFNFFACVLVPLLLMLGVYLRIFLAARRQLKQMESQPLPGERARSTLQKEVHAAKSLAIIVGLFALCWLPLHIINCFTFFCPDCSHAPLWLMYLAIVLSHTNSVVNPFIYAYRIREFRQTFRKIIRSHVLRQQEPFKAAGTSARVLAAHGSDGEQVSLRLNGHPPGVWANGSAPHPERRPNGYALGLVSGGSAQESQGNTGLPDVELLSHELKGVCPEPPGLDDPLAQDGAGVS
compound,measurement,value
"N#Cc1c(NCc2cccc(C(F)(F)F)c2)nc(N)nc1-c1ccco1 [Example 346, 2-Amino-4-furan-2-yl-6-(3-trifluoromethyl-benzylamino)-pyrimidine-5-carbonitrile]",Ki,2.4 nM
"Cc1cccc(COc2nc(N)nc(-c3ccc(C)o3)c2C#N)n1 [Example 246, 2-Amino-4-(5-methyl-furan-2-yl)-6-(6-methyl-pyridin-2-ylmethoxy)-pyrimidine-5-carbonitrile]",Ki,1.86 nM
"N#Cc1c(NCc2ccccn2)nc(N)nc1-c1ccco1 [Example 283, 2-Amino-4-furan-2-yl-6-[(pyridin-2-ylmethyl)-amino]-pyrimidine-5-carbonitrile]",Ki,5.89 nM
N#Cc1c(SCCc2ccccn2)nc(N)nc1-c1cccs1 [Example 370],Ki,8.91 nM
"N#Cc1c(OCc2ccccc2)nc(N)nc1-c1ccco1 [Example 47, 2-Amino-4-benzyloxy-6-furan-2-yl-pyrimidine-5-carbonitrile]",Ki,3.8 nM
"Cc1coc(-c2nc(N)nc(OCCc3ccccn3)c2C#N)c1 [Example 423, 2-Amino-4-(4-methyl-furan-2-yl)-6-(2-pyridin-2-yl-ethoxy)-pyrimidine-5-carbonitrile]",Ki,3.02 nM
"N#Cc1c(NCc2ccccc2Cl)nc(N)nc1-c1ccco1 [Example 360, 2-Amino-4-(2-chloro-benzylamino)-6-furan-2-yl-pyrimidine-5-carbonitrile]",Ki,0.589 nM
"Cc1cccnc1CNc1nc(N)nc(-c2ccco2)c1C#N [Example 368, 2-Amino-4-furan-2-yl-6-[(3-methyl-pyridin-2-yl-methyl)-amino]-pyrimidine-5-carbonitrile]",Ki,1.86 nM
"N#Cc1c(OCc2cc3ccccc3cn2)nc(N)nc1-c1ccco1 [Example 366, 2-Amino-4-furan-2-yl-6-(isoguinolin-3-yl-methoxy)-pyrimidine-5-carbonitrile]",Ki,1.82 nM
"Cc1ccnc(COc2nc(N)nc(-c3ccco3)c2C#N)c1 [Example 373, 2-Amino-4-furan-2-yl-6-(4-methyl-pyridin-2-yl-methoxy)-pyrimidine-5-carbonitrile]",Ki,5.13 nM
"Cc1coc(-c2nc(N)nc(SCCc3ccccn3)c2C#N)c1 [Example 422, 2-Amino-4-(4-methyl-furan-2-yl)-6-(2-pyridin-2-yl-ethylsulfanyl)-pyrimidine-5-carbonitrile]",Ki,1.35 nM
"N#CCc1ccc(-c2nc(N)nc(SCCc3ccccn3)c2C#N)o1 [Example 524, 2-Amino-4-(5-cyanomethyl-fran-2-yl)-6-(2-pyridin-2:yl-ethylsulfanyl)-pyrimidine-5-carbonitrile]",Ki,5.75 nM
"Nc1nc(SCCc2ccccn2)c(Cl)c(-c2ccco2)n1 [Example 354, 5-Chloro-4-furan-2-yl-6-(2-pyridin-2-yl-ethylsulfanyl)-pyrimidin-2-yl-amine]",Ki,4.9 nM
"N#Cc1c(NCc2ccc3c(c2)OCO3)nc(N)nc1-c1ccco1 [Example 337, 2-Amino-4-[(benzo [1,3]dioxol-5-ylmethyl)-amino]-6-furan-2-yl-pyrimidine-5-carbonitrile]",Ki,6.61 nM
"N#Cc1c(OCCc2ccccn2)nc(N)nc1-c1ccco1 [Example 241, 2-Amino-4-furan-2-yl-6-(2-pyridin-2-yl-ethoxy)-pyrimidine-5-carbonitrile]",Ki,2.19 nM
"Cc1cnc(CNc2nc(N)nc(-c3ccco3)c2C#N)c(C)c1 [Example 402, 2-Amino-4-[(3,5-dimethyl-pyridin-2-ylmethyl)-amino]-6-furan-2-yl-pyrimidine-5-carbonitrile]",Ki,2.14 nM
"COc1ccc(CCNc2nc(N)nc(-c3ccco3)c2C#N)cc1 [Example 144, 2-Amino-4-furan-2-yl-6-[2-(4-methoxy-phenyl)-ethylamino]-pyrimidine-5-carbonitrile]",Ki,2.82 nM
"Cc1ccc(CNc2cc(N)nc(-c3ccco3)c2C#N)nc1 [Example 377, 6-Amino-2-furan-2-yl-4-[(5-methyl-pyridin-2-yl-methyl)-amino]-nicotinonitrile]",Ki,7.76 nM
"N#Cc1c(OCc2ccccn2)nc(N)nc1-c1cccs1 [Example 206, 2-Amino-4-(pyridin-2-ylmethoxy)-6-thiophen-2-yl-pyrimidine-5-carbonitrile]",Ki,9.55 nM
"N#Cc1c(OCC=Cc2ccccc2)nc(N)nc1-c1ccco1 [Example 278, 2-Amino-4-furan-2-yl-6-(3-phenyl-allyloxy)-pyrimidine-5-carbonitrile]",Ki,3.72 nM
"N#Cc1c(OCCCc2ccccc2)nc(N)nc1-c1ccco1 [Example 54, 2-Amino-4-furan-2-yl-6-(3-phenyl-propoxy)-pyrimidine-5-carbonitrile]",Ki,7.41 nM
"Cc1ccc(CNc2nc(N)nc(-c3ccco3)c2C#N)cc1C [Example 347, 2-Amino-4-(3,4-dimethyl-benzylamino)-6-furan-2-yl-pyrimidine-5-carbonitrile]",Ki,1.66 nM
"N#Cc1c(OCCc2ccccc2)nc(N)nc1-c1ccco1 [Example 53, 2-Amino-4-furan-2-yl-6-phenethyloxy-pyrimidine-5-carbonitrile]",Ki,6.31 nM
"N#Cc1c(SCCc2ccccn2)cc(N)nc1-c1ccco1 [Example 356, 6-Amino-2-furan-2-yl-4-(2-pyridin-2-yl-ethylsulfanyl)-nicotinonitrile]",Ki,0.912 nM
"Cc1ccc(COc2nc(N)nc(-c3ccc(Cl)o3)c2C#N)nc1 [Example 531, 2-Amino-4-(5-chloro-furan-2-yl)-6-(5-methyl-pyridin-2-yl-methoxy)-pyrimidine-5-carbonitrile]",Ki,5.62 nM
"Cc1cccc(COc2nc(N)nc(-c3ccco3)c2C#N)n1 [Example 237, 2-Amino-4-furan-2-yl-6-(6-methyl-pyridin-2-ylmethoxy)-pyrimidine-5-carbonitrile]",Ki,2.95 nM
"N#Cc1c(NCCOc2ccccc2)nc(N)nc1-c1ccco1 [Example 235, 2-Amino-4-furan-2-yl-6-(2-phenoxy-ethylamino)-pyrimidine-5-carbonitrile]",Ki,3.47 nM
"CN(C)c1ccc(CNc2nc(N)nc(-c3ccco3)c2C#N)cc1 [Example 312, 2-Amino-4-(4-dimethylamino-benzylamino)-6-furan-2-yl-pyrimidine-5-carbonitrile]",Ki,9.77 nM
"Nc1nc(SCCc2ccccn2)c(Br)c(-c2ccco2)n1 [Example 353, 5-Bromo-4-furan-2-yl-6-(2-pyridin-2-yl-ethylsulfanyl)-pyrimidin-2-yl-amine]",Ki,3.8 nM
"Cc1ccc(-c2nc(N)nc(OCc3ccccn3)c2C#N)o1 [Example 247, 2-Amino-4-(5-methyl-furan-2-yl)-6-(pyridin-2-ylmethoxy)-pyrimidine-5-carbonitrile]",Ki,2.14 nM
"N#Cc1c(SCCCc2ccccc2)nc(N)nc1-c1ccco1 [Example 234, 2-Amino-4-furan-2-yl-6-(3-phenyl-propylsulfanl)-pyrimidine-5-carbonitrile]",Ki,5.5 nM
"N#Cc1c(-c2ccco2)nc(N)nc1N1CCCCC1 [Example 41, 2-Amino-4-furan-2-yl-6-piperidin-1-yl-pyrimidine-5-carbonitrile]",Ki,8.51 nM
"Nc1nc(OCC=Cc2ccccc2)c(Br)c(-c2ccco2)n1 [Example 280, 5-Bromo-4-furan-2-yl-6-(3-phenyl-allyloxy)-pyrimidin-2-yl-amine]",Ki,9.33 nM
"COc1cccc(CNc2nc(N)nc(-c3ccco3)c2C#N)c1 [Example 291, 2-Amino-4-furan-2-yl-6-(3-methoxy-benzylamino)-pyrimidine-5-carbonitrile]",Ki,3.31 nM
